Laboratory results published in patent publication US11273152B2, “TRPV2 antagonists” (Instituto de Medicina Molecular João Lobo Antunes, priority 2017, dated 2022).

Key:
[1] = biological target: TRPC7 (Homo sapiens, UniProt Q9HCX4); test: Fluorescence cell-based assay, TRPC7; details: membrane potential dye, spread in log units, duplicate
Method: (§1) The assays were performed at SB Discovery (Glasgow, UK) on a fee-for-service basis. Human TRP cells were trypsinised, counted and seeded in black, clear-bottomed 96 well plates at a density of 50,000 cells per well in 100 μL volume and incubated overnight. Next day, the cells were loaded with calcium 5 dye or membrane potential dye. TRPV1-5, TRPA1, TRPM2, TRPM3, and TRPM8 were tested using the calcium 5 dye. TRPC1, TRPC3-7, and TRPM4-5 were tested using the membrane potential dye. Both dye solutions were made up in HEPES buffered Hank's balanced salt solution (HBSS). Dye solution (90 μL) was added to the wells and incubated at 37° C. for 1 hour. Test compounds and standard inhibitors (10 μL) were then added to the wells and incubated at room temperature for 10 minutes. The plates were then placed in the flexstation and fluorescence monitored every 1.52 seconds. After 20 seconds agonist was added and the fluorescence monitored for 2 minutes at 485 nm/525 nm and 530 nm/565 nm, Ex/Em, for the calcium 5 dye and the membrane potential dye respectively. Controls-TRPV1: capsazepine; TRPV2: tranilast; TRPV3: ruthenium red; TRPV4: ruthenium red; TRPV5: Gd^3+; TRPA1, ruthenium red; TRPC1: Gd^3+; TRPC3: Pyr3; TRPC4: ML 204; TRPC5: ML 204; TRPC6: ML 204; TRPC7: SKF 96365; TRPM2: 2-APB; TRPM3: Mef acid; TRPM4: clotrimazole; TRPM5: TPPO; TRPM8: 2-APB. […]

[2] = biological target: T1, TRPV2 (Homo sapiens, UniProt Q9Y5S1); test: Fluorescence cell-based assay, TRPV2 (cannabidiol-evoked calcium influx); details: spread in log units; n=2; read-out: IC50 against TRPV2, fluorescence-based assay (FIG. 2a)
T1 sequence (Q9Y5S1 1-764): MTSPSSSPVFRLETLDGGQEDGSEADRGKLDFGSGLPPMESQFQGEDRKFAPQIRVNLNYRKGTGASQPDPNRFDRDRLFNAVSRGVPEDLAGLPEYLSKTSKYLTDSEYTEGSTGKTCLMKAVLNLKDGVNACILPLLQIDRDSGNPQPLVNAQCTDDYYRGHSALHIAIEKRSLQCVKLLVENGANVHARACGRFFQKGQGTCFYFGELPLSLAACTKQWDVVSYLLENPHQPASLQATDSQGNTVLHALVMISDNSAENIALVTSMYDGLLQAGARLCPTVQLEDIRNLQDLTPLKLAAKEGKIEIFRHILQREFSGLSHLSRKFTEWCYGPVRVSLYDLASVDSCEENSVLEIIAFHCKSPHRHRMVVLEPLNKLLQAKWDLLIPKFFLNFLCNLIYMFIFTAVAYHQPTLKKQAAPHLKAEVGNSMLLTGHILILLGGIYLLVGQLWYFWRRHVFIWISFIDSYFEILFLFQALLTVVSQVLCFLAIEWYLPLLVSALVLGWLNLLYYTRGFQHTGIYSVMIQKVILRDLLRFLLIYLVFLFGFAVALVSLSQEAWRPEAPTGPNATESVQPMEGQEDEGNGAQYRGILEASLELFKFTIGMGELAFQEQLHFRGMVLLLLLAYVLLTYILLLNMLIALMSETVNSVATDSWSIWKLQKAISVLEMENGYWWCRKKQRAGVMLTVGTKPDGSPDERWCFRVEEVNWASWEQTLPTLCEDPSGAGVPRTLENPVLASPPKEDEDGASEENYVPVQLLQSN
Method: The assays were performed at SB Discovery (Glasgow, UK) on a fee-for-service basis. Human TRP cells were trypsinised, counted and seeded in black, clear-bottomed 96 well plates at a density of 50,000 cells per well in 100 μL volume and incubated overnight. Next day, the cells were loaded with calcium 5 dye or membrane potential dye. TRPV1-5, TRPA1, TRPM2, TRPM3, and TRPM8 were tested using the calcium 5 dye. TRPC1, TRPC3-7, and TRPM4-5 were tested using the membrane potential dye. Both dye solutions were made up in HEPES buffered Hank's balanced salt solution (HBSS). Dye solution (90 μL) was added to the wells and incubated at 37° C. for 1 hour. Test compounds and standard inhibitors (10 μL) were then added to the wells and incubated at room temperature for 10 minutes. The plates were then placed in the flexstation and fluorescence monitored every 1.52 seconds. After 20 seconds agonist was added and the fluorescence monitored for 2 minutes at 485 nm/525 nm and 530 nm/565 nm, Ex/Em, for the calcium 5 dye and the membrane potential dye respectively. Controls-TRPV1: capsazepine; TRPV2: tranilast; TRPV3: ruthenium red; TRPV4: ruthenium red; TRPV5: Gd^3+; TRPA1, ruthenium red; TRPC1: Gd^3+; TRPC3: Pyr3; TRPC4: ML 204; TRPC5: ML 204; TRPC6: ML 204; TRPC7: SKF 96365; TRPM2: 2-APB; TRPM3: Mef acid; TRPM4: clotrimazole; TRPM5: TPPO; TRPM8: 2-APB. Control data was in all cases within historical range.

[3] = biological target: T1, TRPV2; test: Manual patch-clamp assay, hTRPV2 stable HEK-293 cells; type: cell-based; details: n=3
Method: The assays were performed at SB Discovery (Glasgow, UK) on a fee-for-service basis. Concentration-response curves and washout assays were performed using a manual patch clamp method. HEK-293 cells were grown and prepared, according to the adapted procedure for hTRPV2 stable cell lines at SB Discovery. Cells were serum starved for approximately 24 hours and then changed to serum-containing media prior to electrophysiology testing. The manual patch-clamp assay was carried out at room temperature using a traditional electrophysiological unit. Cells were used within 2-3 hours after addition of serum containing media to the cells. The standard extracellular solution contained 145 mM NaCl, 4 mM KCl, 2 mM CaCl2, 1 mM MgCl2, 10 mM HEPES and 10 mM glucose. The pH was adjusted to 7.4 with NaOH, and the osmolarity was measured as 311 mOsm/L. The standard intracellular solution contained 50 mM KCl, 10 mM NaCl, 60 mM KF, 2 mM MgCl2, 20 mM EGTA and 10 mM HEPES. The pH was adjusted to 7.2 with KOH and the osmolarity was measured as 286 mOsm/L. A standard ramp protocol was used to monitor currents upon addition of control (extracellular solution) and compound solutions. The voltage protocol consisted of a series of voltage ramps from −100 mV to +100 mV, every 5 seconds, from a holding potential of −60 mV. The maximum outward current values during the recordings at +100 mV were used for analysis. Manual patch clamp experiments were carried out using an Axon 200B amplifier and a Digidata 1440A acquisition system from Axon Instruments (Molecular Devices, USA). The software program pClamp (version 10) from Axon Instruments was used to stimulate and record electrical activity. Capacitative transients were compensated electronically from the recordings, however the voltage drop across the series resistance and the liquid junction potential were not compensated. The series resistance was generally less than 10 MΩ, with a mean cell capacity of approximately 25 pF. The GraphPad Prism (version 5) software was used to analyze and plot all graphs. The agonist (cannabidiol; Abcam #ab120448) was prepared as 100 mM stock in 100% DMSO and diluted to 4 μM or 10 μM in physiological solution prior to testing. Piperlongumine was prepared as 100 mM stock in 100% DMSO and diluted to the specified concentrations in physiological solution (100, 50, 10, 1 and 0.1 μM), also containing 4 μM or 10 μM cannabidiol. Ruthenium red (Sigma, #R2751) was prepared daily as 10 mM stock ion distilled water and diluted to 100 μM in physiological solution.

[4] = biological target: TRPA1 (Homo sapiens, UniProt O75762); test: Fluorescence cell-based assay, TRPA1; details: calcium 5 dye, spread in log units, duplicate
Chain of TRPA1 (O75762 whole entry): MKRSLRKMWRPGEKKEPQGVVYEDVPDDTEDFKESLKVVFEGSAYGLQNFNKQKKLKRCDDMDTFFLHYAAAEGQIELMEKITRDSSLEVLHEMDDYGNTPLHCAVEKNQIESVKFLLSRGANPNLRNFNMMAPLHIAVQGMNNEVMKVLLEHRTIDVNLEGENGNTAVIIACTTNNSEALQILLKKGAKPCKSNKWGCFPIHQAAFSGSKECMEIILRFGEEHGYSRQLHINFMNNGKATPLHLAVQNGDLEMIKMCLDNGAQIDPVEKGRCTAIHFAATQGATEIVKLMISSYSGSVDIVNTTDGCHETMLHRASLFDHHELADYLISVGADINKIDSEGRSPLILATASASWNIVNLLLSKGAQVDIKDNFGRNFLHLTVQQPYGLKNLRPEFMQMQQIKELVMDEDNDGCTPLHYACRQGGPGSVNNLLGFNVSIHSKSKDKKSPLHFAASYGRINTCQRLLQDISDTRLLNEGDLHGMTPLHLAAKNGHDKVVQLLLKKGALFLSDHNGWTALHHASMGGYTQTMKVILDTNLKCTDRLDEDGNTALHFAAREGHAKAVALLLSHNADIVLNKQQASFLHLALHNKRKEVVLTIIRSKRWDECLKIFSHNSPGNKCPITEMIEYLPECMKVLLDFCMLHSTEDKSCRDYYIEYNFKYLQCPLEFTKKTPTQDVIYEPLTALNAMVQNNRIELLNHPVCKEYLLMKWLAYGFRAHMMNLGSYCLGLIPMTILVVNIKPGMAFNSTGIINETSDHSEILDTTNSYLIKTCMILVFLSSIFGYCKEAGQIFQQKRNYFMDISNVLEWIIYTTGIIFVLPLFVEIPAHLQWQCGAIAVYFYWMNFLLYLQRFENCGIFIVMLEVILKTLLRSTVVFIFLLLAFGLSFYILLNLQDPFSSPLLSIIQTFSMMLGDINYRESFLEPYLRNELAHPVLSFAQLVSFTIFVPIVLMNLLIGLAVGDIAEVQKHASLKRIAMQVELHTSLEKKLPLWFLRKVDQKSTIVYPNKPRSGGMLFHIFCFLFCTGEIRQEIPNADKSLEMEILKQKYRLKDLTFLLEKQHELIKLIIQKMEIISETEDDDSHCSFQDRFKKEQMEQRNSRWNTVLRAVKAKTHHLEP
Method: as §1

Chain of TRPC7 (Q9HCX4 whole entry): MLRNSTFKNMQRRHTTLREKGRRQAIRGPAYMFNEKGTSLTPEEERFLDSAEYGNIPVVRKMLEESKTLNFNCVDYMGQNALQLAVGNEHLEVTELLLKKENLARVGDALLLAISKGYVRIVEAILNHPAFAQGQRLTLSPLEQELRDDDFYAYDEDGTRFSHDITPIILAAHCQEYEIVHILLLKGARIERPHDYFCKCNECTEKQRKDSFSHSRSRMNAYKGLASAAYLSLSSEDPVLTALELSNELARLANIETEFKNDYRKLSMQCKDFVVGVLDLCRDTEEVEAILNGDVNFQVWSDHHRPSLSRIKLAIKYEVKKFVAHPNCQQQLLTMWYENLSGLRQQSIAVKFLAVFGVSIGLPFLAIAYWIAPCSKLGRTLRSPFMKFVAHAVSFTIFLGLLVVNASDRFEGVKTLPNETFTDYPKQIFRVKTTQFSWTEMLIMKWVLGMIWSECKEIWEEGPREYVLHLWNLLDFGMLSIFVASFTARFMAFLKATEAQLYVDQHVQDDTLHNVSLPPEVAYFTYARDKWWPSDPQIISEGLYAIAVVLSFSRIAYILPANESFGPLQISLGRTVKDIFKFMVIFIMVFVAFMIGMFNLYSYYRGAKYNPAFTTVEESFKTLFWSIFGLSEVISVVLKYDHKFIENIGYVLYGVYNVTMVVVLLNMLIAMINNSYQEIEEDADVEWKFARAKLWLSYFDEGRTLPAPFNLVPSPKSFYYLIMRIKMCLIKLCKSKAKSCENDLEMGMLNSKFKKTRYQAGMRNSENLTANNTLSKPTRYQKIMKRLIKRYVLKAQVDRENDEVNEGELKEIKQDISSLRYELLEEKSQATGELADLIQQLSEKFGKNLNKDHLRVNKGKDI

COc1ccc(CCCOC(Cn2ccnc2)c2ccc(OC)cc2)cc1 (centres unmarked) [SKF 96365, reference compound]
IC50 [1]: 103 µM

COc1ccc(/C=C/C(=O)Nc2ccccc2C(=O)O)cc1OC [tranilast, reference compound]
IC50 [2]: 2.3 ± 0.25 µM

C=C(C)[C@@H]1CCC(C)=C[C@H]1c1c(O)cc(CCCCC)cc1O [cannabidiol, reference compound]
nHill (cannabidiol), TRPV2 [3]: 0.6
EC50 ([3]; read-out: EC50 (cannabidiol), TRPV2): 3.8 µM

Cl.Cl.Cl.Cl.Cl.Cl.N.N.N.N.N.N.N.N.N.N.N.N.N.N.[O-2].[O-2].[Ru+3].[Ru+3].[Ru+4] [ruthenium red, reference compound]
IC50 [4]: 2.3 µM
